# Several values for one entry are separate records, joined by “and”; a condition that tells them apart may be missing. Equal values may be shown once. Marks after values point to notes of the source that are not given here.
# What was measured:
# [1] = cited from earlier work
# [2] = tested on: rats with adjuvant polyarthritis; details: Demerson et al. 1983; cited from earlier work
# prostaglandin synthetase = details: Demerson et al. 1983; cited from earlier work
# [3] = tested on: transgenic adenocarcinoma mouse prostate (TRAMP) mouse; experiment: TRAMP animal model: average weight of dissected prostate lobes; type: in vivo
# Protocol: (§1) The transgenic adenocarcinoma mouse prostate (TRAMP) mouse, was used to evaluate the effect of R-etodolac on prostate cancer progression. The etodolac was compounded into the diet at 312 ppm (low dose) and 1250 ppm (high dose) and the animals were treated for 18 weeks. At necoscopy, the urogenital system was removed and weighed. The prostate lobes, seminal vesicles, lungs, liver, and periaortic lymph nodes were preserved and sectioned for histological evaluation and graded on a 1-6 scale for degree of hyperplasia/neoplasia/carcinoma.
# [4] = tested on: transgenic adenocarcinoma mouse prostate (TRAMP) mouse; experiment: TRAMP animal model: histopathological evaluation of the prostate (grade 1-6); type: in vivo; parameters: key to Average mouse Staging / Overall Mean (staging of group) / Histopathological grade, Lateral prostate: histological grade on 1-6 scale of hyperplasia/neoplasia/carcinoma; details: for Overall Mean (staging of group): TRAMP mice; for Average mouse Staging: mean of lobe grades
# Protocol: as §1
# hyperplastic cells = experiment: Activity against hyperplastic cells; details: compared with S(+) enantiomer
# Description: The pharmacokinetics of etodolac have been extensively reviewed by D. R. Brocks et al., Clin. Pharmacokinet., 26, 259 (1994). Etodolac is marketed as the racemate.
# [5] = cited from earlier work; remark: listed apart in the source
# [6] = after a 200 mg dose in six elderly patients
# [7] = TRAMP mice, High Dose (1250 ppm in diet), 18 weeks, average ± standard deviation
# [8] = TRAMP mice, Low Dose (312 ppm in diet), 18 weeks, average ± standard deviation
# [9] = TRAMP mice treated with R-etodolac
smiles,measurement,setting,value
"CCc1cccc2c3c([nH]c12)[C@](CC)(CC(=O)O)OCC3 (single isomer, unassigned) [S(+)-enantiomer of etodolac, reference compound]",Maximum concentration relative to R-enantiomer,[1]; [6],5 fold lower
same,Anti-inflammatory activity (reduction in paw volume),[2],almost all of the anti-inflammatory activity of the racemate
same,Prostaglandin synthetase inhibitory activity,prostaglandin synthetase,almost all
"CCc1cccc2c3c([nH]c12)C(CC)(CC(=O)O)OCC3 (racemic) [etodolac, 1,8-diethyl-1,3,4,9-tetrahydro[3,4-6]indole-1-acetic acid]",Elimination half-life,[1]; racemic mixture,6 to 8 h
CCc1cccc2c3c([nH]c12)[C@@](CC)(CC(=O)O)OCC3 [R-etodolac],Average weigh (g) Anterior Prostate,[3]; [7],0.076 ± 0.012 g
same,Average weigh (g) Dorsal Prostate,[3]; [7],0.053 ± 0.013 g
same,Average weigh (g) Lateral Prostate,[3]; [7],0.016 ± 0.003 g
same,Average weigh (g) Ventral prostate,[3]; [7],0.014 ± 0.001 g
same,Total Weigh average,[3]; [7],0.160 ± 0.022 g
same,Average weigh (g) Anterior Prostate,[3]; [8],0.062 ± 0.033 g
same,Average weigh (g) Dorsal Prostate,[3]; [8],0.062 ± 0.027 g
same,Average weigh (g) Lateral Prostate,[3]; [8],0.015 ± 0.001 g
same,Average weigh (g) Ventral prostate,[3]; [8],0.024 ± 0.017 g
same,Overall size of the prostates,"[3]; TRAMP mice, highest dose",reduction of the overall size of the prostates
same,Overall size of the prostates,[3]; treated mice compared to untreated mice,reduces the overall size of the prostates
same,Effects in any other tissues,[4]; [9],No other effects in any other tissues were observed
same,Progression of the disease (histological analysis),[4]; [9],maintaining the animals in a pre-cancerous stage
same,Overall Mean (staging of group),"[4]; High dose group (1250 ppm in diet), 18 weeks, statistically significant from control group, p < 0.005",3.3*
same,Overall Mean (staging of group),"[4]; Low dose group (312 ppm in diet), 18 weeks",4.3
same,Average mouse Staging,"[4]; individual TRAMP mice, High dose (1250 ppm in diet), 18 weeks",3.8 and 3.3 (3×) and 3.5 and 3.0
same,"Histopathological grade, Lateral prostate","[4]; individual TRAMP mice, Low dose (312 ppm in diet), 18 weeks, grade 1-6",3.5
same,Average mouse Staging,"[4]; individual TRAMP mice, Low dose (312 ppm in diet), 18 weeks",4.0 (2×) and 5.5 and 3.6 and 4.5 and 6.0
same,Activity against hyperplastic cells,hyperplastic cells,potent activity against hyperplastic cells that is at least equivalent to that of the S(+) enantiomer
same,Maximum plasma concentration,[1]; [6],about 33 μM
same,Plasma concentrations of R-enantiomer relative to S-enantiomer,"[1]; in plasma after administration of RS-etodolac, Brocks et al. 1994",about 10 fold
same,Anti-inflammatory activity (reduction in paw volume),[2],No anti-inflammatory activity was discernible
same,Conversion to the S(+) enantiomer in vivo,[5],not converted significantly

# — patent US7211599B2, “Use of etodolac to treat hyperplasia” (The Regents of the University of California, priority 2002, dated 2007)
